# Reference: US7345096B2, “Use of norepinephrine reuptake modulators for preventing and treating vasomotor symptoms” (Wyeth, priority 2002, dated 2008)
# Assays:
# [1] = tested on: naloxone-induced flush (tail skin temperature); assay: Morphine-dependent rat model of hot flush (MD model); conditions: for ED50: Rattus norvegicus, read-out: ED50 value, abatement of naloxone-induced flush; for effect on naloxone-induced flush at maximal flush: 1 hour prior to naloxone, 15 minutes post-naloxone
# Experimental: (§1) Dosinq: All doses were prepared based on mg/kg.
# (§2) Animals: Ovariectomized Sprague-Dawley rats (180-220 g) were obtained from a commercial vendor (Taconic, Germantown, N.Y.) and individually housed under 12 hours light/dark cycle in a room maintained at 25° C. Animals were provided with standard rat chow and water ad libitum.
# Morphine-dependent model: Ovariectomized rats were injected once daily for 8-9 days with vehicle to minimize stress responses and then administered compound(s) on test day. On day 4 of dosing, morphine dependence was induced by sc implantation of two slow-release morphine pellets (75 mg/pellet) in the dorsal scapular region. […] Four to six days after implantation, morphine withdrawal was induced with an opioid antagonist (naloxone) that causes a transient increase in TST. […] Rats were mildly sedated with ketamine and a thermistor connected to a MacLab data acquisition system was taped to the base of the tail. Tail skin temperature was then monitored continuously for 35 minutes to establish a baseline temperature. Naloxone was subsequently administered and TST was measured for an additional 35 to 60 minutes (total recording time 70 to 95 minutes).
# Statistical analysis: To analyze changes in TST induced by naloxone in morphine-dependent rats, all data were analyzed using a two factor repeated measure ANOVA for “treatment” and “time.” The model was fit to test whether there were significant differences in the responses between treatment groups. Naloxone administration is designated as time zero and data is then analyzed at 5 minute intervals. The first three readings were averaged and used as baseline TST scores. All data were analyzed as ΔTST (TST for each time point—baseline). Multiple comparisons (LSD p-values) among the treatment groups at each time point were used for the analysis. Efficacy of hot flush abatement was determined by evaluating statistical differences at the peak response time of 15 minutes post-naloxone, when the maximal change in TST is observed. A customized SAS-excel (SAS Institute, Cary, N.C.) application was used applying a four parameter logistic model to determine ED50 values. A logistic dose transformation was performed on ΔTST. Maximum flush (ΔTST at 15 minutes post-naloxone) was used in the analysis and the minimum was locked at zero.
# [2] = tested on: tail skin temperature during active (dark) phase; assay: OVX-induced thermoregulatory dysfunction telemetry model
# Experimental: as §1, §2
# A temperature and physical activity transmitter (PhysioTel TA10TA-F40, Data Sciences International) was implanted subcutaneously in the dorsal scapular region and the tip of the temperature probe was tunneled subcutaneously 2.5 cm beyond the base of the tail. After a 7-day recovery period, TST readings were continuously recorded for the remainder of the study. Tail skin temperature readings were collected from each animal every 5 minutes with values obtained over a 10 second sampling period. The day before test day, an average baseline TST value was calculated for each animal by averaging temperature readings recorded during the 12 hours active (dark) phase. In these studies, animals were dosed approximately 1 hour prior to the onset of dark cycle.
# Evaluation of a compound's ability to restore normal lowering of TST in the telemetry model was analyzed using hourly TST values calculated for each animal by averaging the 12 temperature readings obtained every 5 minutes over that recording time. To analyze ΔTST in the telemetry model, a two factors repeated measure ANOVA was performed. The model used for analysis was ΔTST=GRP (group)+HR (hours)+GRP*HR+BASELINE. Thus, the reported least squares means are the expected mean values as if both groups had the same baseline value. Post-hoc tests of hourly GRP*HR samples are t-tests of the difference between groups for each hour. To be conservative, a result was not considered significant unless the p-value was <0.025. All analyses were performed using SAS PROC MIXED (SAS, Carey, N.C.).
structure (smiles),measurement,setting,value
CN1CCN(CC(c2cccc(Cl)c2)C2(O)CCCCC2)CC1 (racemic) [1-[1-(3-chlorophenyl)-2-(4-methyl-1-piperazinyl)ethyl]cyclohexanol],changes in TST over time after naloxone,"[1]; dose response, sc",dose-dependently abate the naloxone-induced flush
"CN(C)CC(c1ccc(O)cc1)C1(O)CCCCC1 (centres unmarked) [DVS-233, O-desmethyl-venlafaxine]",ED50,[1]; sc,30 mg/kg
same,changes in TST over time,[2]; 60 mg/kg sc,significantly and transiently decreases TST during the active phase
CN(C)CC(c1cccc(Cl)c1)C1(O)CCCCC1 (centres unmarked) [WY-781],effect on naloxone-induced flush at maximal flush,[1]; 30 mg/kg intraperitoneally,abated the naloxone-induced flush
CN(C)CC(c1cccc(C(F)(F)F)c1)C1(O)CCCCC1 (centres unmarked) [WY-867],effect on naloxone-induced flush at maximal flush,[1]; 30 mg/kg intraperitoneally,abated the naloxone-induced flush
CCC1(c2cnc[nH]2)Cc2ccccc2C1 [atipamezole],changes in TST after naloxone vs vehicle,"[1]; atipamezole 0.3 mg/kg sc alone, 55 minutes prior to naloxone",not significantly different from vehicle treated rats
CNCCCN1c2ccccc2CCc2ccccc21 [desipramine],abatement of naloxone-induced flush,"[1]; 1 mg/kg sc, 40 minutes prior to naloxone, alone",approximately 50%
same,abatement of hot flush,[1]; 3 mg/kg desipramine co-administered with 10 mg/kg dose of SRI,100%
same,ED50,[1]; sc,1 mg/kg
same,effect on naloxone-induced flush at maximal flush,"[1]; dose response, sc",dose-dependently abates the naloxone-induced flush
same,reduction of TST compared to vehicle treated rats in naloxone-induced hot flush,[1]; low dose,50%
same,changes in TST over time,[2]; 10 mg/kg sc,significantly decreases TST over the entire length of the active phase
CNCCC(Oc1ccc(C(F)(F)F)cc1)c1ccccc1 (centres unmarked) [fluoxetine],effect on naloxone-induced flush,[1]; fluoxetine 10 mg/kg sc alone,did not abate the naloxone-induced flush
CCOc1ccccc1OC(c1ccccc1)C1CNCCO1 (centres unmarked) [reboxetine],changes in TST over time after naloxone,"[1]; dose response, sc",dose-dependently abate the naloxone-induced flush
same,effect on naloxone-induced flush at maximal flush,"[1]; dose response, sc",dose-dependently abates the naloxone-induced flush
COc1ccc(C(CN(C)C)C2(O)CCCCC2)cc1 (centres unmarked) [venlafaxine],effect on elevated naloxone-dependent hot flush induced by atipamezole,"[1]; rat, in vivo",able to alleviate
same,changes in TST over time,[2]; 15 mg/kg sc,significantly and transiently decreased TST during the active phase
